pIC50: −log10 of the molar value.
Test system: IL-1β production in PMA-differentiated THP-1 cells
Test: IL-1β production in PMA-differentiated THP-1 cells stimulated with gramicidin (hTHP-1 assay, 2% fetal bovine serum)
Assay type: cell-based
Conditions: Homo sapiens, hTHP-1 assay containing 2% fetal bovine serum
Description: THP-1 cells were purchased from the American Type Culture Collection and sub-cultured according to instructions from the supplier. Cells were cultured in complete RPMI 1640 (containing 10% heat inactivated FBS, penicillin (100 units/ml) and streptomycin (100 μg/ml)), and maintained in log phase prior to experimental setup. Prior to the experiment, compounds were dissolved in dimethyl sulfoxide (DMSO) to generate a 30 mM stock. The compound stock was first pre-diluted in DMSO to 3, 0.34, 0.042 and 0.0083 mM intermediate concentrations and subsequently spotted using Echo550 liquid handler into an empty 384-well assay plate to achieve desired final concentration (e.g. 100, 33, 11, 3.7, 1.2, 0.41, 0.14, 0.046, 0.015, 0.0051, 0.0017 μM). DMSO was backfilled in the plate to achieve a final DMSO assay concentration of 0.37%. The plate was then sealed and stored at room temperature until required.
THP-1 cells were treated with PMA (Phorbol 12-myristate 13-acetate) (20 ng/ml) for 16-18 hours. On the day of the experiment the media was removed and adherent cells were detached with trypsin for 5 minutes. Cells were then harvested, washed with complete RPMI 1640, spun down, and resuspended in RPMI 1640 (containing 2% heat inactivated FBS, penicillin (100 units/ml) and streptomycin (100 μg/ml). The cells were plated in the 384-well assay plate containing the spotted compounds at a density of 50,000 cells/well (final assay volume 50 μl). Cells were incubated with compounds for 1 hour and then stimulated with gramicidin (5 μM) (Enzo) for 2 hours. Plates were then centrifuged at 340 g for 5 min. Cell free supernatant (40 μL) was collected using a 96-channel PlateMaster (Gilson) and the production of IL-1β was evaluated by HTRF (cisbio). The plates were incubated for 18 h at 4° C. and read using the preset HTRF program (donor emission at 620 nm, acceptor emission at 668 nm) of the SpectraMax i3x spectrophotometer (Molecular Devices, software SoftMax 6). A vehicle only control and a dose titration of CRID3 (100-0.0017 μM) were run concurrently with each experiment. […]

| pIC50 | Compound |
| --- | --- |
| 6.70 to 7.40 | CC(C)(O)c1ncc(S(N)(=O)=NC(=O)Nc2c3c(cc4c2CCC4)CCC3)s1 (centres unmarked) [Compound I, N′-(1,2,3,5,6,7-hexahydro-s-indacen-4-ylcarbamoyl)-2-(2-hydroxypropan-2-yl) thiazole-5-sulfonimidamide] |
| 6.00 to 6.70 | CC(C)(O)c1ncc([S@@](N)(=O)=NC(=O)Nc2c3c(cc4c2CCC4)CCC3)s1 [Compound IB, (S)-N′-((1,2,3,5,6,7-hexahydro-s-indacen-4-yl)carbamoyl)-2-(2-hydroxypropan-2-yl) thiazole-5-sulfonimidamide] |

Source: patent US20250082611A1, “DOSING REGIMEN FOR AN NLRP3 INHIBITOR IN THE TREATMENT OF OSTEOARTHRITIS” (Novartis AG, priority 2021, published 2025)
